Experimental data reported in ChEMBL document CHEMBL1201862, “PubChem BioAssay data set” (2004).
The source made the active and inactive calls. For most assays here, no stated cut-off is given here; in the data, actives have a measured EC50 and inactives only a lower limit.

Columns and labels:
[1] = test system: Streptococcus sp. 'group A'; experiment: growth inhibition of control SK(-) GAS strain, dose response, counter-screen for streptokinase expression inhibitor project, luminescence, kanamycin, BacTiterGlo, confirmation (AID 1900); assay type: functional, organism-based
Streptococcus = experiment: Group A Streptococcus viability loss, dose response, counter-screen for streptokinase expression inhibitor project, luminescence, BacTiterGlo (AID 1915); assay type: functional, organism-based;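 further: potency for reduction of bacterial viability or growth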
Streptokinase A = target: T1, Streptokinase A (Streptococcus pyogenes serotype M1, UniProt P10520); experiment: S. pyogenes streptokinase expression inhibitors, potency, dose response, plasminogen activation absorbance, OD405 (AID 1914); assay type: functional, Streptococcus pyogenes M1 GAS;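 further: secreted streptokinase activity via plasminogen activation per viability signal from cell pellet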
T1 sequence (P10520 whole entry): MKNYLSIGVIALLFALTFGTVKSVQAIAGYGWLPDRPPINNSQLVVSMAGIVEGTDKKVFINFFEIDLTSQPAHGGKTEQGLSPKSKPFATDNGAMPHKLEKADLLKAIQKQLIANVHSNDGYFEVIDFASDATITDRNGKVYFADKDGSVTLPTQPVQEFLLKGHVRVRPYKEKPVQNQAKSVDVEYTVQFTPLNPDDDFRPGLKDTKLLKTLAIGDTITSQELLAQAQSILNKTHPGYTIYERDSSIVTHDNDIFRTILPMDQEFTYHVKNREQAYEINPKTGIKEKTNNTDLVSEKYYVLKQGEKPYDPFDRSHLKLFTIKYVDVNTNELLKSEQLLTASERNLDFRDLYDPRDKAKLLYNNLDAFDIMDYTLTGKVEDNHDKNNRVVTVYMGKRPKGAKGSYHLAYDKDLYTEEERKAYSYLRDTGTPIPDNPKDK

Cytochrome P450 1A2 = target: T2, Cytochrome P450 1A2 (Homo sapiens, UniProt P05177);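 further: PubChem cytochrome P450 panel assay, CYP1A2 panel member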
T2 sequence (P05177 whole entry): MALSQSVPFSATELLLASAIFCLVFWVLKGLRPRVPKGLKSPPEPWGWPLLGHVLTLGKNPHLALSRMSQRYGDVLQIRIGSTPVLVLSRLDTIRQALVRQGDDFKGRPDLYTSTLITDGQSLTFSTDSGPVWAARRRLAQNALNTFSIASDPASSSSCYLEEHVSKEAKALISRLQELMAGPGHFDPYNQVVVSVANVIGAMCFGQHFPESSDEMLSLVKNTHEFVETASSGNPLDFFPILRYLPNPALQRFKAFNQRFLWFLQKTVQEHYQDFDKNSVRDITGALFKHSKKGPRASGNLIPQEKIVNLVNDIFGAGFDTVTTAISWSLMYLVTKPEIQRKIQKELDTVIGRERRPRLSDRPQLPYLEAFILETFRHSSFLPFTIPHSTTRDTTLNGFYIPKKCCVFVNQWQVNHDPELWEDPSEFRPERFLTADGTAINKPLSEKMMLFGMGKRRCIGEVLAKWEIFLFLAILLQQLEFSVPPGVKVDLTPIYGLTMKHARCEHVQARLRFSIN

[2] = inhibitors of intracellular T. cruzi replication, confirmation, NIH3T3 host cells, beta-gal luminescence (AID 2044); assay type: functional, cell-based;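 further: intracellular parasites grown in NIH/3T3 mouse fibroblasts as host cells; luminescent beta-galactosidase reporter signal from transgenic T. cruzi replicating inside host cells; inhibitors lower the luminescence signal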
[3] = cytotoxicity toward NIH3T3 fibroblasts, dose response, counter-screen, cell-based, ATP luminescence, mouse fibroblasts (AID 2010); assay type: functional;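 further: cells exposed to compound for about 90 hours before reading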
[4] = Luminescence Cell-Based Dose Response HTS to Identify Activators of Luciferase Translation or Activity in H4 […] Cells. [Related pubchem assays: 1829 (Project Summary), 1814 (Primary HTS)]; assay type: functional
H4 = experiment: Luminescence Cell-Based Dose Response HTS to Identify Activators of 5'UTR Stem-Loop Driven Prion Protein mRNA Translation in H4 Neuroglioblastoma Cells. [Related pubchem assays: 1829 (Project Summary), 1814 (Primary HTS)]; assay type: functional; conditions: Homo sapiens
[5] = Luminescence Cell-Based Dose Retest to Confirm Inhibitors of Cancer Stem Cells. [Related pubchem assays (depositor defined):AID2717, AID2721]; assay type: functional; conditions: Homo sapiens

Cc1cc2occ(CC(=O)NC3=NCCS3)c2cc1C(C)C
EC50 [1]: 71.7 µM (active) | EC50 (Streptococcus): > 150 µM (not active) | EC50 (Streptokinase A): > 150 µM (not active)

O=S(=O)(O)c1cc(/N=N\c2cccc3ccccc23)c(O)c2ncccc12
AC50 (Cytochrome P450 1A2): 0.631 µM (inconclusive)

COc1ccc(C2c3ccsc3CCN2C(=O)C(C)(C)C)cc1 (stereo not given)
EC50 [1]: > 150 µM (not active) | EC50 (Streptococcus): > 150 µM (not active) | EC50 (Streptokinase A): > 150 µM (not active)

OC(COCC(F)(F)C(F)(F)C(F)(F)C(F)F)Cn1c2ccc(Cl)cc2c2cc(Cl)ccc21 (stereo not given)
EC50 [1]: 2.2 µM (active) | EC50 (Streptococcus): 2.62 µM (active)

CCOC(=O)c1ccc(NC(=S)N(Cc2cccnc2)Cc2ccco2)cc1
EC50 [2]: 0.631 µM (active) | EC50 [3]: > 60 µM (not active)

O=C(c1cc(COc2cccc3cnccc23)on1)N1CCC(c2ccccc2Cl)C1 (stereo not given)
EC50 [2]: 1.57 µM (active) | EC50 [3]: > 60 µM (not active)

OCCCNc1[nH]cnc2nncc1-2
AC50 (Cytochrome P450 1A2): 6.31 µM (inconclusive)

CC1=C/C(=N\NC(=S)NCc2ccccc2)CC1
EC50 [2]: 2.88 µM (active) | EC50 [3]: > 60 µM (not active)

O=C(Nc1ccccc1)Nc1ccc(-n2ccc(C(F)(F)F)n2)cc1
EC50 [4]: 0.648 µM (active) | EC50 (H4): > 120 µM (not active)

O=[N+]([O-])c1ccc(N2CCN(S(=O)(=O)c3ccc(Cl)cc3)CC2)cc1NCc1cccnc1
EC50 [2]: 1.38 µM (active) | EC50 [3]: 15.4 µM (active)

CCSc1nnc(NC(=O)COc2ccc3ccccc3c2)s1
AC50 (Cytochrome P450 1A2): 10 µM (inconclusive)

Cc1c(Cl)cnn1CC(=O)NC1C(=O)N2C(C(=O)O)=C(CSc3nnnn3C)CSC12 (stereo not given)
EC50 [1]: 0.1 µM (active) | EC50 (Streptococcus): 0.283 µM (active)

COc1ccc(OCC(=O)Nc2ccc(Cl)cc2C(=O)c2ccccc2)cc1
AC50 (Cytochrome P450 1A2): 3.55 µM (inconclusive)

COc1ccccc1CN1CC[C@@]2(CCCN(C(=O)c3cc(C(F)(F)F)cc(C(F)(F)F)c3)C2)C1
AC50 (Cytochrome P450 1A2): 15.8 µM (inconclusive)

CCCCC(C=O)NC(=O)C(CC(C)C)NC(=O)OCc1ccccc1 (stereo not given)
AC50 (Cytochrome P450 1A2): 31.6 µM (inconclusive)

O=c1[nH]c2cc3c(cc2cc1CN(CCc1ccccc1)Cc1nnnn1CC1CCCO1)OCO3 (stereo not given)
EC50 (Streptokinase A): > 150 µM (not active)

O=C(Nc1cccc(NC(=O)c2cccnc2)c1)c1ccccc1
EC50 [1]: > 150 µM (not active) | EC50 (Streptococcus): > 150 µM (not active) | EC50 (Streptokinase A): > 150 µM (not active)

COC(=O)c1c(NC(=O)c2ccc(C)c(S(=O)(=O)Nc3ccccc3C)c2)sc2c1CCCC2
AC50 [5]: 0.875 µM (active)

COc1cccc(-c2nnc(NC(=O)c3ccc(S(=O)(=O)N4CC(C)OC(C)C4)cc3)o2)c1 (stereo not given)
EC50 [1]: 1.3 µM (active) | EC50 (Streptococcus): 2.15 µM (active)

O=C(c1ccncc1)N1CCC2(CCCN(c3cccc(-c4ccccc4)c3)C2)CC1
AC50 (Cytochrome P450 1A2): 12.6 µM (inconclusive)

Cc1ccc(-n2c(SCC(=O)c3c(N)n(C)c(=O)n(C)c3=O)nc3sc4c(c3c2=O)CCCC4)c(C)c1
EC50 [2]: 2.1 µM (active) | EC50 [3]: 50.5 µM (active)

O=S(=O)(Nc1ccc(-c2nnc(SCc3ccc(Cl)cc3)o2)cc1)c1ccccc1
AC50 [5]: 3.31 µM (active)

c1ccc(N2CCN(c3nc4cc5c(cc4s3)OCCO5)CC2)cc1
EC50 (H4): 46 µM (inconclusive)

CC(C)(C)c1ccc(C(=O)NCc2nnc(SCC(=O)NC3CCCC3)o2)cc1
EC50 [1]: > 150 µM (not active) | EC50 (Streptococcus): > 150 µM (not active) | EC50 (Streptokinase A): > 150 µM (inconclusive)

CCC[C@]12CN3C[C@](CCC)(CN(C1)C3c1ccccn1)C2=O (stereo not given in full)
EC50 [1]: 43.8 µM (active) | EC50 (Streptococcus): > 150 µM (not active)

COc1cc(/C=C(/C#N)c2ccc(C)cc2)ccc1Oc1ccc([N+](=O)[O-])cn1
EC50 [2]: 1.54 µM (active) | EC50 [3]: > 60 µM (not active)

COc1ccc(Nc2nc(NC(C)(C)C)nc(N3CCOCC3)n2)c(OC)c1
EC50 [2]: 1.59 µM (active) | EC50 [3]: > 60 µM (not active)

Oc1nc2cc3c(cc2cc1CN(CCc1ccccc1)Cc1nnnn1CC1CCCO1)OCO3 (stereo not given)
EC50 [1]: > 150 µM (not active) | EC50 (Streptococcus): > 150 µM (not active)

CN1CCc2c(sc(NC(=O)c3cc4cc([N+](=O)[O-])ccc4s3)c2C(N)=O)C1
EC50 [2]: 1.73 µM (active) | EC50 [3]: 14.3 µM (active)

COCCNC(=O)CN(C(=O)CCC(=O)Nc1ccccn1)c1ccc(C)cc1
AC50 [5]: > 195 µM (inactive)

CN(C)Cc1nc2ccccc2c(=O)n1Cc1nc(-c2cc3ccccc3o2)cs1
EC50 [1]: 10.4 µM (active) | EC50 (Streptococcus): > 150 µM (not active) | EC50 [2]: 2.57 µM (active) | EC50 [3]: > 30 µM (not active) | EC50 (Streptokinase A): 104 µM (active)

Nc1ccc(-c2ccc(N)cc2C(F)(F)F)c(C(F)(F)F)c1
EC50 [1]: 31 µM (active) | EC50 (Streptococcus): > 150 µM (not active) | EC50 (Streptokinase A): 76.8 µM (active)

Cc1c([N+](=O)[O-])nnn1-c1cc(Cl)cc(Cl)c1
EC50 [2]: 1.86 µM (active) | EC50 [3]: > 30 µM (not active)

CCSc1nc2nc(C)cc(C)n2n1
AC50 (Cytochrome P450 1A2): 12.6 µM (inconclusive)

CN(C)CCCN1c2ccccc2C(C)(C)c2ccccc21 [DIMETACRINE]
AC50 (Cytochrome P450 1A2): 5.01 µM (inconclusive)

Cc1cc(C)cc(NC(S)=NCCSc2ccc(Cl)cc2)c1
EC50 [1]: 11.8 µM (active) | EC50 (Streptococcus): > 150 µM (not active) | EC50 (Streptokinase A): 15.9 µM (active)

CCn1c(SCC(=O)N/N=C/C=C\c2ccccc2[N+](=O)[O-])nnc1-c1ccccc1
AC50 (Cytochrome P450 1A2): 28.2 µM (inconclusive)

CCOC(=O)N1CCN(c2cc(N3CCN(CC)CC3)c(F)cc2[N+](=O)[O-])CC1C (stereo not given)
EC50 [2]: 0.184 µM (active) | EC50 [3]: > 60 µM (inconclusive)

Cc1ccc(C(=O)N2CCCC(CCC(=O)NCc3ccccc3F)C2)cn1 (stereo not given)
EC50 [1]: > 150 µM (not active) | EC50 (Streptococcus): > 150 µM (not active) | EC50 (Streptokinase A): > 150 µM (not active)

O=C(CC(NS(=O)(=O)c1ccc(Cl)cc1)c1ccco1)NCc1ccco1 (stereo not given)
AC50 (Cytochrome P450 1A2): 25.1 µM (inconclusive)

O=c1n(-c2ccc(Br)cc2)cnn1-c1ncccc1[N+](=O)[O-]
EC50 [4]: 2.9 µM (active) | EC50 (H4): 17.3 µM (active)

COc1ccccc1NC(=O)NCCCCc1ccccc1
EC50 [1]: > 150 µM (not active) | EC50 (Streptococcus): > 150 µM (not active) | EC50 (Streptokinase A): > 150 µM (not active)

Cc1ccc2nc(N(CCCN(C)C)C(=O)c3ccc(Br)s3)sc2c1
EC50 [2]: 0.102 µM (active) | EC50 [3]: > 60 µM (not active)

Cc1cc(C)c(-c2csc(NC(=O)COC(=O)c3ccc4c(c3)OCO4)n2)c(C)c1
EC50 [2]: 4.69 µM (active) | EC50 [3]: > 60 µM (not active)

O=C(COc1ccccc1)Nc1cccc(-c2nc3ccccc3[nH]2)c1
EC50 [1]: 22.7 µM (active) | EC50 (Streptococcus): > 150 µM (not active) | EC50 (Streptokinase A): > 150 µM (not active)

CC(C)(C)c1ccc(Cn2nnc3c(O)nc(C4CCCN(C(=O)c5cccs5)C4)nc32)cc1 (stereo not given)
AC50 [5]: 10.6 µM (active)

CCOc1ccccc1CN1CCN(Cc2[nH]c3ccccc3c2C)CC1CCO (stereo not given)
EC50 [2]: 0.204 µM (active) | EC50 [3]: > 60 µM (not active)

N#CC1=C(N)OC2=C(C(=O)CC(c3ccccc3)C2)C1c1cccnc1 (stereo not given)
EC50 [2]: 0.111 µM (active) | EC50 [3]: > 30 µM (not active)

O=c1c(Cl)c(NCc2ccccc2)cnn1C12CC3CC(CC(C3)C1)C2
AC50 [5]: 1.16 µM (active)

CCCOc1ccc(/C=N/Nc2cccc([N+](=O)[O-])c2)c(O)c1
AC50 [5]: 1.76 µM (active)

CC(=O)c1c(C)[nH]c(C(=O)Nc2nccs2)c1C
EC50 [4]: > 120 µM (not active) | EC50 (H4): > 120 µM (not active)
